Reference: US20230121313A1 (priority 2019, published 2023)
“And” between values parts separate entries of the source, which are not always exact repeats. Equal entries are not always repeated. “Also recorded” adds a separate entry of the source. Structures can show the parent of a compound that is named as a salt. Marks after values point to notes of the source that are not given here.

What was measured:
[1] = tested on: female Sprague-Dawley rats; experiment: Single dose neurotoxicity study, intranasal esketamine HCl (clinical observations, brain histopathology, toxicokinetics)
Source text: (§1) For these studies, female specific pathogen free (SPF) Sprague-Dawley rats were used, which were approximately 12 to 14 weeks at start of dosing and weighed between 227 to 293 grams in the single dose study and between 235 to 296 grams in the 14-day repeated dose study. The rats were supplied by Charles River (Sulzfeld, Germany). They were group housed in polysulphone cages with floor area of 3000 cm^2 and Corn Cob (size 12, Eurocob, France) was provided as bedding material. Environmental enrichment existed of a rodent retreat (Bio-Serv, US) and aspen wood blocks (Datesand, UK). […] The animals were fed ad libitum with irradiated R/M-H pelleted maintenance diet from Ssniff (Germany). Hydrogel™ (supplied by Bio-services, Uden, the Netherlands) was provided to the MK-801 dosed rats in the single dose study.
Esketamine HCl was instilled intranasally at doses of 0 (vehicle), 36, 54 or 72 mg (expressed as esketamine base) to female rats on a single day. The dose levels were obtained by 2, 3 or 4 subsequent intranasal instillations, respectively, into both nostrils at a volume of 50 μL per nostril. At each instillation, the second nostril was dosed immediately after the first nostril. The interval between subsequent instillations into both nostrils was 5 minutes.
The vehicle control group received 4 subsequent intranasal instillations of the vehicle into both nostrils (50 μL per nostril) with 5-minute intervals.
The injection volume was 5 mL/kg.
The vehicle- and the 36 and 54 mg-dosed groups consisted of 24 animals per group, while the 72 mg-dosed and positive control groups involved 30 animals per group. Four satellite animals were added to the esketamine HCl-dosed groups of main study animals for toxicokinetic (TK) purposes. In these animals the plasma exposure to esketamine was measured on the day of dosing at various time points up to and including 24 hours after the first instillation.
Prior to the perfusion, rats were anesthetized with isoflurane. After injection of 0.1 ml heparin, the blood of the rat was flushed out with a physiological saline solution by intraarterial insertion of a needle in the abdominal aorta. Thereafter the rat was perfused with glutaraldehyde 3% in potassium phosphate 0.09M and 1.4% sucrose. Due to logistic constraints at maximum 30 animals could undergo the whole-body perfusion procedure on a given day. Therefore, a staggered start of treatment was applied to all 5 groups of main study animals. Consequently, subgroups of 4 main study animals of the vehicle- and 36 and 54 mg-dosed groups, and 5 main study animals of the 72 mg-dosed and positive control groups, were dosed on 6 consecutive days, respectively.
The vehicle control, positive control, and esketamine HCl-dosed animals were sacrificed at either 48 hours (i.e., the first 12 or 15 rats per group) or 96 hours after the dose administration time (i.e., the last 12 or 15 rats per group). The brain tissue of the vehicle control-, positive control- and esketamine HCl-treated rats were processed at the same time and handled in the same way in batches of 4 or 5 animals per group.
(§2) Furthermore, clinical observations were recorded for the esketamine HCl-dosed rats on the day of dosing at 0 till 5 minutes, 15 and 30 minutes, and at 1, 2, 4, 6 hours post-dose, at the end of the working day and at 24 hours after the last instillation in the single dose study and on the first day of dosing, after one week and towards the end of the dosing period in the repeated dose study. Body weight and body weight gain were measured daily. Food consumption was measured weekly in the repeated dose study.
On the day of terminal kill, a complete physical examination was performed on the rats in fasted condition and body weight was recorded. The surviving animals were anaesthetized by inhalation of an isoflurane (IsoFlo® Zoetis, Belgium)/oxygen mixture and killed by exsanguination via the carotid artery.

[2] = tested on: female Sprague-Dawley rats; experiment: 14-day repeated dose neurotoxicity study, intranasal esketamine HCl (clinical observations, brain histopathology, toxicokinetics); conditions: for Abnormal respiration, incidence / Ataxia, incidence / Chromodacryorrhea, incidence / Decreased general activity, incidence / Decubitus, incidence / Increased general activity, incidence / Salivation (out of normal), incidence / audible respiration, incidence / bradypnoea, incidence: 14 days
Source text: as §1
Esketamine HCl was administered into each nostril of female rats at a volume of 50 μl per nostril either once, twice or thrice daily by intranasal instillation for 14 consecutive days at doses of 0 (vehicle), 18, 36 or 54 mg/day. At each instillation, the second nostril was dosed immediately after the first nostril. The interval between subsequent instillations into both nostrils was 5 minutes when dosed 2 or 3 times per day.
The vehicle control group received 3 subsequent intranasal instillations of the vehicle into both nostrils (50 μL per nostril) with 5-minute intervals for 14 consecutive days.
The positive control group received a single subcutaneous injection of (+)MK-801 at 48 hours prior to the necropsy of the vehicle control and esketamine HCl-treated animals.
Each group of main study animals consisted of 12 female rats. Four satellite animals were added to the esketamine HCl-dosed groups of main study animals for TK purposes. The plasma exposure to esketamine was measured in these animals on the first and the last day of dosing at various time points up to and including 24 hours after the first instillation.
Due to logistic constraints associated with the whole body perfusion procedure of the animals at necropsy, a staggered start was applied to the study. Consequently, all 5 groups of main study animals were divided into three subgroups of 4 animals each. For each of these subgroups treatment started on a different day. The perfusion procedure is the is the same as described for the single dose study.
All vehicle- and esketamine HCl-treated animals were sacrificed at 48 hours after the last instillation. […] The brain tissue of the vehicle control-, positive control- and esketamine HCl-treated rats were processed at the same time and handled in the same way in batches of 4 animals per group.
as §2
On the day of terminal kill, a complete physical examination was performed on the rats in fasted condition and body weight was recorded. The surviving animals were anaesthetized by inhalation of an isoflurane (IsoFlo® Zoetis, Belgium)/oxygen mixture and killed by exsanguination via the carotid artery. […] All terminally killed rats or those killed pre-terminally were perfused with 4% paraformaldehyde in the single dose study and with glutaraldehyde 3% in potassium phosphate buffer 0.09 M with 1.4% sucrose in the repeated dose study.
Brain tissue was sampled and processed routinely. The trimmed and embedded tissue was sectioned and stained with hematoxylin-eosin (HE).

[3] = single dose neurotoxicity study, 72 mg
[4] = 14-day neurotoxicity study, 54 mg/day

SMILES: CN[C@]1(c2ccccc2Cl)CCCCC1=O [esketamine HCl, (S)-2-(2-chlorophenyl)-2-(methylamino)cyclohexanone hydrochloride]
- Duration of severely decreased activity with decubitus, bradypnea, ptosis, catalepsy (anesthesia) after last instillation ([1]; 36 mg): 15 to 30 min
- Duration of ataxia (with increased activity) after recovery from decreased activity ([1]; 54 mg, hydrochloride): 1.5 to 3 h and 1 to 3 h
- Duration of ataxia (with increased activity) after recovery from decreased activity ([1]; 72 mg): up to 3 hours or longer
- Abnormal respiration, incidence ([1]; single dose 36 mg intranasal): 22/24***
- Ataxia, incidence ([1]; single dose 36 mg intranasal): 24/24***
- Catalepsy, incidence ([1]; single dose 36 mg intranasal): 20/24***
- Chromodacryorrhea, incidence ([1]; single dose 36 mg intranasal): 0/24
- Decreased general activity, incidence ([1]; single dose 36 mg intranasal): 23/24***
- Decubitus, incidence ([1]; single dose 36 mg intranasal): 23/24***
- Increased general activity, incidence ([1]; single dose 36 mg intranasal): 24/24***
- Narrowed palpebral fissure, incidence ([1]; single dose 36 mg intranasal): 7/24**
- Piloerection, incidence ([1]; single dose 36 mg intranasal): 0/24
- Salivation (out of normal), incidence ([1]; single dose 36 mg intranasal): 23/24***
- audible respiration, incidence ([1]; single dose 36 mg intranasal): 10/24***
- bradypnoea, incidence ([1]; single dose 36 mg intranasal): 22/24***
- Abnormal respiration, incidence ([1]; single dose 54 mg intranasal): 22/24***
- Ataxia, incidence ([1]; single dose 54 mg intranasal): 24/24***
- Catalepsy, incidence ([1]; single dose 54 mg intranasal): 23/24***
- Chromodacryorrhea, incidence ([1]; single dose 54 mg intranasal): 0/24
- Decreased general activity, incidence ([1]; single dose 54 mg intranasal): 23/24***
- Decubitus, incidence ([1]; single dose 54 mg intranasal): 23/24***
- Increased general activity, incidence ([1]; single dose 54 mg intranasal): 24/24***
- Narrowed palpebral fissure, incidence ([1]; single dose 54 mg intranasal): 10/24***
- Piloerection, incidence ([1]; single dose 54 mg intranasal): 0/24
- Salivation (out of normal), incidence ([1]; single dose 54 mg intranasal): 24/24***
- audible respiration, incidence ([1]; single dose 54 mg intranasal): 3/24
- bradypnoea, incidence ([1]; single dose 54 mg intranasal): 21/24***
- Abnormal respiration, incidence ([1]; single dose 72 mg intranasal): 30/30***
- Catalepsy, incidence ([1]; single dose 72 mg intranasal): 30/30***
- Chromodacryorrhea, incidence ([1]; single dose 72 mg intranasal): 0/30
- Decreased general activity, incidence ([1]; single dose 72 mg intranasal): 30/30***
- Decubitus, incidence ([1]; single dose 72 mg intranasal): 30/30***
- Increased general activity, incidence ([1]; single dose 72 mg intranasal): 29/30***
- Narrowed palpebral fissure, incidence ([1]; single dose 72 mg intranasal): 22/30***
- Piloerection, incidence ([1]; single dose 72 mg intranasal): 0/30
- Salivation (out of normal), incidence ([1]; single dose 72 mg intranasal): 29/30***
- audible respiration, incidence ([1]; single dose 72 mg intranasal): 2/30
- bradypnoea, incidence ([1]; single dose 72 mg intranasal): 30/30***
- Brain histopathology (neuronal necrosis / Olney lesions in PCG/RSC) ([1]; single dose study, esketamine HCl intranasal up to 72 mg, (+)MK-801 maleate 1 mg/kg sc, 48 and 96 h post-dose, hydrochloride): no morphological evidence of neuronal degeneration; also recorded: histopathological lesions were absent; also recorded: No signs of neuronal necrosis were found; also recorded: no neuropathological lesions were observed
- Mortality ([1]; single intranasal dose 72 mg, within 30 minutes after 4 instillations): two main study animals and two satellite TK animals died
- Mortality ([1]; single intranasal dose up to 54 mg): No test article related mortality
- Abnormal respiration, incidence ([2]; 18 mg/day intranasal): 2/12
- Ataxia, incidence ([2]; 18 mg/day intranasal): 12/12***
- Chromodacryorrhea, incidence ([2]; 18 mg/day intranasal): 0/12
- Decreased general activity, incidence ([2]; 18 mg/day intranasal): 5/12
- Decubitus, incidence ([2]; 18 mg/day intranasal): 0/12
- Increased general activity, incidence ([2]; 18 mg/day intranasal): 12/12***
- Salivation (out of normal), incidence ([2]; 18 mg/day intranasal): 12/12***
- audible respiration, incidence ([2]; 18 mg/day intranasal): 2/12
- bradypnoea, incidence ([2]; 18 mg/day intranasal): 0/12
- Abnormal respiration, incidence ([2]; 36 mg/day intranasal): 11/12***
- Ataxia, incidence ([2]; 36 mg/day intranasal): 12/12***
- Chromodacryorrhea, incidence ([2]; 36 mg/day intranasal): 0/12
- Decreased general activity, incidence ([2]; 36 mg/day intranasal): 12/12***
- Decubitus, incidence ([2]; 36 mg/day intranasal): 2/12
- Increased general activity, incidence ([2]; 36 mg/day intranasal): 12/12***
- Salivation (out of normal), incidence ([2]; 36 mg/day intranasal): 12/12***
- audible respiration, incidence ([2]; 36 mg/day intranasal): 6/12**
- bradypnoea, incidence ([2]; 36 mg/day intranasal): 11/12***
- Abnormal respiration, incidence ([2]; 54 mg/day intranasal): 12/12***
- Ataxia, incidence ([2]; 54 mg/day intranasal): 12/12***
- Chromodacryorrhea, incidence ([2]; 54 mg/day intranasal): 0/12
- Decreased general activity, incidence ([2]; 54 mg/day intranasal): 12/12***
- Decubitus, incidence ([2]; 54 mg/day intranasal): 8/12***
- Increased general activity, incidence ([2]; 54 mg/day intranasal): 12/12***
- Salivation (out of normal), incidence ([2]; 54 mg/day intranasal): 12/12***
- audible respiration, incidence ([2]; 54 mg/day intranasal): 6/12**
- bradypnoea, incidence ([2]; 54 mg/day intranasal): 12/12***
- Maximum tolerated dose (MTD) upon repeated intranasal administration ([2]; 14-day dose-range finding study (internal study)): 54 mg/day
- Brain histopathology (neuronal necrosis / Olney lesions in PCG/RSC) ([2]; 14-day study, esketamine HCl intranasal up to 54 mg/day, (+)MK-801 maleate single 1 mg/kg sc, 48 h after last dose, hydrochloride, 1 mg/kg): absence of neuronal necrosis; also recorded: no histopathological lesions were noted; also recorded: did not; also recorded: No histopathological lesions were found
- Mortality ([2]; up to 54 mg/day for 14 days): No test article related mortality occurred

SMILES: CN[C@]1(c2ccccc2Cl)CCCCC1=O [esketamine, (S)-2-(2-chlorophenyl)-2-(methylamino)cyclohexanone]
- AUC-based safety margin compared with the maximum 84 mg clinical dose [1, 3]: ~86 fold
- Cmax-based safety margin compared with the maximum 84 mg clinical dose [1, 3]: approximately 60 fold
- AUC-based safety margin compared with the maximum 84 mg clinical dose [2, 4]: ~11 fold
- Cmax-based safety margin compared with the maximum 84 mg clinical dose [2, 4]: approximately 17 fold
